Laboratory results published in patent publication US10028966B2 (Avalyn Pharma Inc., priority 2014, dated 2018).

Tests used:
[1] = primary metabolite; cited from earlier work
[2] = test system: EGFR mutation positive patients; conditions: cited from earlier work
p110-γ and p110-δ = conditions: inhibits all four isoforms; cited from earlier work
[3] = Pharmacokinetics and tissue distribution (lung, plasma, heart, kidney) of co-solvent formulations, intratracheal bolus aerosol; type: in vivo, Sprague-Dawley rats; conditions: pirfenidone about 4 mg/kg IT aerosol
Method: Selected formulations were prepared for pharmacokinetic analysis following aerosol delivery to rat lung. […] Formulations prepared for this study are outlined in Table 9. […] The sample was agitated until completely dissolved. […] Filtered samples were analyzed by HPLC.

PI3K = conditions: cited from earlier work
mTOR = mTOR (Homo sapiens, UniProt P42345); conditions: cited from earlier work
elastase = conditions: unprocessed CF sputum directly treated; cited from earlier work
breast cancer stem cells = conditions: mice; cited from earlier work
cancer patients = conditions: cited from earlier work
[4] = test system: relapsed/refractory multiple myeloma; conditions: cited from earlier work

In the case of `O=C(O)c1ccc(=O)n(-c2ccccc2)c1` [5-carboxy-pirfenidone], the “share of urinary excretion” value [1] is listed as 95%.

In the case of `C#Cc1cccc(Nc2ncnc3cc(OCCOC)c(OCCOC)cc23)c1` [Erlotinib], the response rate [2] is given as “approximately 60%”.

In the case of `Nc1nc(N)c2nc(-c3cccc(O)c3)c(-c3cccc(O)c3)nc2n1` [TG100-115], the “fold better potency against p110-γ and p110-δ” value (p110-γ and p110-δ) is listed as 5-10 fold.

With `O=C(O)c1ccc(=O)n(-c2ccccc2)c1` the “5-carboxy metabolite, lung tissue, Mean” value ([3]; 0 MIN (one value for all groups)) was 0.00 μg/gram, the “5-carboxy metabolite, lung tissue, Mean” value ([3]; Group 1, 0.0333 hr) was 0.12 μg/gram and the “5-carboxy metabolite, lung tissue, Mean” value ([3]; Group 1, 0.0667 hr) was 0.13 μg/gram. The “5-carboxy metabolite, lung tissue, Mean” value ([3]; Group 1, 0.100 hr) was 0.48 μg/gram, the “5-carboxy metabolite, lung tissue, Mean” value ([3]; Group 1, 0.167 hr) was 0.49 μg/gram and the “5-carboxy metabolite, lung tissue, Mean” value ([3]; Group 1, 0.333 hr) was 0.96 μg/gram. For the same molecule, the “5-carboxy metabolite, lung tissue, Mean” value ([3]; Group 1, 0.667 hr) was 0.96 μg/gram, the “5-carboxy metabolite, lung tissue, Mean” value ([3]; Group 1, 1 hr) was 0.73 μg/gram and the “5-carboxy metabolite, lung tissue, Mean” value ([3]; Group 1, 2 hr) was 0.21 μg/gram. The “5-carboxy metabolite, lung tissue, Mean” value ([3]; Group 1, 2.50 hr) was 0.10 μg/gram, the “5-carboxy metabolite, lung tissue, Mean” value ([3]; Group 1, […]) was 0.48 μg/gram and the “5-carboxy metabolite, lung tissue, Mean” value ([3]; Group 3, 0.0333 hr) was 0.05 μg/gram. The “5-carboxy metabolite, lung tissue, Mean” value ([3]; Group 3, 0.0667 hr) was 0.36 μg/gram, the “5-carboxy metabolite, lung tissue, Mean” value ([3]; Group 3, 0.100 hr) was 0.55 μg/gram and the “5-carboxy metabolite, lung tissue, Mean” value ([3]; Group 3, 0.167 hr) was 0.86 μg/gram. The “5-carboxy metabolite, lung tissue, Mean” value ([3]; Group 3, 0.333 hr) was 1.09 μg/gram, the “5-carboxy metabolite, lung tissue, Mean” value ([3]; Group 3, 0.667 hr) was 0.81 μg/gram and the “5-carboxy metabolite, lung tissue, Mean” value ([3]; Group 3, 1 hr) was 0.70 μg/gram. For the same molecule, the “5-carboxy metabolite, lung tissue, Mean” value ([3]; Group 3, 2 hr) was 0.32 μg/gram, the “5-carboxy metabolite, lung tissue, Mean” value ([3]; Group 3, 2.50 hr) was 0.14 μg/gram and the “5-carboxy metabolite, lung tissue, Mean” value ([3]; Group 3, […]) was 0.52 μg/gram. For the same molecule, the “5-carboxy metabolite, lung tissue, Mean” value ([3]; Group 5, 0.0333 hr) was 0.17 μg/gram, the “5-carboxy metabolite, lung tissue, Mean” value ([3]; Group 5, 0.0667 hr) was 0.42 μg/gram and the “5-carboxy metabolite, lung tissue, Mean” value ([3]; Group 5, 0.100 hr) was 0.35 μg/gram. For the same molecule, the “5-carboxy metabolite, lung tissue, Mean” value ([3]; Group 5, 0.167 hr) was 0.53 μg/gram, the “5-carboxy metabolite, lung tissue, Mean” value ([3]; Group 5, 0.333 hr) was 1.32 μg/gram and the “5-carboxy metabolite, lung tissue, Mean” value ([3]; Group 5, 0.667 hr) was 0.96 μg/gram. For the same molecule, the “5-carboxy metabolite, lung tissue, Mean” value ([3]; Group 5, 1 hr) was 0.75 μg/gram, the “5-carboxy metabolite, lung tissue, Mean” value ([3]; Group 5, 2 hr) was 0.18 μg/gram and the “5-carboxy metabolite, lung tissue, Mean” value ([3]; Group 5, 2.50 hr) was 0.10 μg/gram. For the same molecule, the “5-carboxy metabolite, lung tissue, Mean” value ([3]; Group 5, […]) was 0.45 μg/gram, the “5-carboxy metabolite, lung tissue, Mean” value ([3]; Group 6, 0.0333 hr) was 0.17 μg/gram and the “5-carboxy metabolite, lung tissue, Mean” value ([3]; Group 6, 0.0667 hr) was 0.43 μg/gram. For the same molecule, the “5-carboxy metabolite, lung tissue, Mean” value ([3]; Group 6, 0.100 hr) was 0.37 μg/gram, the “5-carboxy metabolite, lung tissue, Mean” value ([3]; Group 6, 0.167 hr) was 0.64 μg/gram and the “5-carboxy metabolite, lung tissue, Mean” value ([3]; Group 6, 0.333 hr) was 0.94 μg/gram. The “5-carboxy metabolite, lung tissue, Mean” value ([3]; Group 6, 0.667 hr) was 0.92 μg/gram, the “5-carboxy metabolite, lung tissue, Mean” value ([3]; Group 6, 1 hr) was 0.78 μg/gram and the “5-carboxy metabolite, lung tissue, Mean” value ([3]; Group 6, 2 hr) was 0.24 μg/gram. The “5-carboxy metabolite, lung tissue, Mean” value ([3]; Group 6, 2.50 hr) was 0.14 μg/gram and the “5-carboxy metabolite, lung tissue, Mean” value ([3]; Group 6, […]) was 0.43 μg/gram.

In the case of `Cc1c(CN2CCN(S(C)(=O)=O)CC2)sc2c(N3CCOCC3)nc(-c3cnc(N)nc3)nc12` [GNE-477], the IC50 (mTOR) is given as 21 nM.

In the case of `O=C(O)CCCC[C@@H](S)CCS` (racemic) [DHLA, dihydrolipoic acid], the “increase of sol elastase activity” value (elastase) is listed as “did not increase elastase activity”.

In the case of `CC[C@@H](C(=O)[C@@H](C)[C@@H](O)[C@H](C)[C@@H]1O[C@@H]([C@@H](CC)C(=O)O)CC[C@@H]1C)[C@H]1O[C@]2(C=C[C@@H](O)[C@]3(CC[C@@](C)([C@H]4CC[C@](O)(CC)[C@H](C)O4)O3)O2)[C@H](C)C[C@@H]1C` [Salinomycin], the “killing of breast cancer stem cells, times more effectively than paclitaxel” value (breast cancer stem cells) is listed as “at least 100 times”.

In the case of `N#CC1(c2ccc(NC(=O)c3cccnc3NCc3ccncc3)cc2)CCCC1` [Apatinib], the complete response (cancer patients; 65 cancer patients, Phase I/II) is listed as 1.54%, the partial response (cancer patients; 65 cancer patients, Phase I/II) is listed as 12.31% and the progressive disease (cancer patients; 65 cancer patients, Phase I/II) is listed as 20%. For the same molecule, the stable disease (cancer patients; 65 cancer patients, Phase I/II) was 66.15% and the maximum tolerated dose (cancer patients; daily for 28 days) was 850 mg/day.

For `CC(C)C[C@H](NC(=O)[C@H](Cc1ccccc1)NC(=O)c1cnccn1)B(O)O` [Bortezomib], the “patients with peripheral neuropathy” value ([4]; human, in vivo) is listed as 30% and the “time to peak concentrations” value ([4]; intravenous administration) is listed as “about 30 minutes”.

For DNase, the “increase of sol elastase activity” value (elastase) is listed as 190%.

B1: reduced rhTrx: stable reduced form of recombinant human thioredoxin (protein, UniProt P10599 2-105, looked up)
Thioredoxin: VKQIESKTAFQEALDAAGDKLVVVDFSATWCGPCKMIKPFFHSLSEKYSNVIFLEVDVDDCQDVASECEVKCMPTFQFFKKGQKVGEFSGANKEKLEATINELV
modifications: reduced form
In the case of B1, the “increase of sol elastase activity” value (elastase) is listed as 60%.
